According to patent US8318741B2, “Therapeutic compositions and methods” (The Texas A & M University System, priority 2005, dated 2012):
Read-outs that look alike come from different tables or passages of the source. Marks after values point to notes of the source that are not given here. One block for each molecule: values may come before it.

Legend:
rat eyes = experiment: Retinal function recovery after ischemic insult in rat eyes (ERG b-wave); details: 10 mg/kg ip; for Retinal Function Recovery After Ischemic Insult, Treated: Mean ± SD, N = 6; for Retinal Function Recovery, Net increase (%): treated versus control
[1] = tested on: ocular hypertensive rabbit eyes; experiment: Choroidal blood flow in ocular hypertensive rabbit eyes (colored microspheres); type: in vivo, New Zealand white rabbits; details: for Time after administration over which the action on choroidal blood flow lasted / Choroidal Blood Flow, 30 min / Choroidal Blood Flow, 60 min / Choroidal Blood Flow, 120 min / Choroidal Blood Flow, 180 min: 50 μl, 1% topically; for Choroidal Blood Flow, 30 min / Choroidal Blood Flow, 60 min / Choroidal Blood Flow, 120 min / Choroidal Blood Flow, 180 min: vehicle controls at 100%, mean ± SD, N = 6
[2] = tested on: choroidal neovascularization in rat eyes
guinea pigs = details: known before the Draize test; cited from earlier work
[3] = tested on: trabeculectomy failure caused by inflammation; design: species or system Dutch Belted rabbits; details: rabbit, in vivo
mice = experiment: LD50 determination / acute oral toxicity; type: in vivo
Method: LD50 determination: For each dose, 20 mice of either sex, weighing 18-20 g were used to determined the LD50 according to the method of Litchfield & Wilcoxon, J. Pharmacol. Exp. Ther. 96:99-113 (1949). Animals were housed in an animal room at 25° C. and 70% relative humidity. The light cycle was set for 12 h light and 12 h darkness.

[4] = tested on: carrageenin induced inflammation; experiment: Carrageenin-induced inflammation (paw edema); type: in vivo, Sprague Dowley rats
Method: Forty female Sprague Dowley rats weighing 164±16 g were used for the experiments. The test and control groups were assigned randomly. Carrageenin (0.1 mL of 1% solution) was injected into the plantar surface of the rat hind paw to induce inflammation. Ten minutes before carrageenin injection, 8 mL of water administered ig. […] The changes in volume of the inflamed edematous foot were measured by the volume of water displaced and recorded at 0, 0.5, 1, 2, 4, and 6 h after the carrageenin injection.

IL-1 induced uveitis = experiment: Interleukin-1 induced uveitis; type: in vivo, Sprague-Dawley rats; details: 20 mg/kg t.i.d.
[5] = Flavonoids, 30 min after administration
[6] = at various dose levels, AMD rat model
[7] = N-Nitropyrazoles and C-Nitropyrazoles, b-wave recovery after 30 min ischemia
[8] = N-Nitropyrazoles and C-Nitropyrazoles
[9] = N-nitro-azoles and C-nitropyrazoles, 30 min
[10] = N-nitro-azoles and C-nitropyrazoles

- Retinal Function Recovery After Ischemic Insult, Treated (rat eyes; Flavonoids, b-wave recovery relative to original level after 30 min ischemia): 54.0 ± 17.8 %
- Retinal Function Recovery, Net increase (%) (rat eyes; Flavonoids): 66.1%
SMILES: O=C1CC(c2ccc(O)cc2)Oc2cc(O)cc(O)c21 (stereo not shown) [Naringenin, 5,7-dihydroxy-2-(4-hydroxyphenyl)chroman-4-one]
- Time after administration over which the action on choroidal blood flow lasted [1]: at least 2 hrs
- Choroidal Blood Flow, 30 min [1, 5]: 102.5 ± 22.0^e* %
- Choroidal Blood Flow, 60 min ([1]; Flavonoids): 226.1 ± 55.0 %
- Choroidal Blood Flow, 120 min ([1]; Flavonoids): 124.2 ± 74.5 %
- Choroidal Blood Flow, 180 min ([1]; Flavonoids): 137.4 ± 712%
- Onset / latent period of the increase of choroidal blood flow ([1]; after drug administration): 30 min
- Time of peak effect on choroidal blood flow ([1]; after drug administration): 60 min
- Increase of choroidal blood flow at the peak, of the original blood flow ([1]; at the peak (60 min after drug administration)): more than 200%
- Inhibition of CNV formation ([2]; 30 mg/kg i.p., eight laser lesions): marked inhibition of CNV formation
- Inhibition of CNV formation [2, 6]: potent inhibition of CNV formation

SMILES: NC(N)=NN=Cc1c(Cl)cccc1Cl [Guanabenz, 2-[(2,6-dichlorophenyl)methylideneamino]guanidine]
- Inhibition of CNV formation ([2]; 20 mg/kg i.p. once a day for 4 weeks, eight laser lesions): All eight CNV formations were inhibited
- Inhibition of CNV formation ([2]; 20 mg/kg i.p. once a day for 4 weeks, eight laser lesions, listed as guanabenz): inhibition of CNV formation
- Inhibition of CNV formation [2, 6]: potent inhibition of CNV formation

SMILES: CC(C)(C)NC[C@@H](O)COc1nsnc1N1CCOCC1 [D-Timolol, (2R)-1-[(4-morpholin-4-yl-1,2,5-thiadiazol-3-yl)oxy]-3-(tert-butylamino)propan-2-ol]
- Inhibition of CNV formation ([2]; 15 mg/kg i.p. once a day for 4 weeks): effective in inhibiting some CNV formation but not as potent as hydralazine or guanabenz
- Inhibition of CNV formation [2, 6]: potent inhibition of CNV formation

SMILES: CONC(=O)c1ccn([N+](=O)[O-])n1 [DN-6, N-methoxy-1-nitro-1H-pyrazole-3-carboxamide]
- Retinal Function Recovery After Ischemic Insult, Treated (rat eyes; [7]): 64.0 ± 24.9 %
- Retinal Function Recovery, Net increase (%) (rat eyes; [8]): 94.5%
- Choroidal Blood Flow, 30 min [1, 9]: 56.9 ± 17.5^e %
- Choroidal Blood Flow, 60 min [1, 10]: 61.8 ± 20.9 %
- Choroidal Blood Flow, 120 min [1, 10]: 88.3 ± 34.1 %
- Choroidal Blood Flow, 180 min [1, 10]: 128.5 ± 60.0 %

- Retinal Function Recovery After Ischemic Insult, Treated (rat eyes; Flavonoids, b-wave recovery relative to original level after 30 min ischemia, 10 mg/kg): 90.0 ± 17.2 %
- Retinal Function Recovery After Ischemic Insult, Treated (rat eyes; Flavonoids, b-wave recovery relative to original level after 30 min ischemia, listed as puerarin, 10 mg/kg): 90%
- Retinal Function Recovery, Net increase (%) (rat eyes; Flavonoids): 190.3%
SMILES: O=c1c(-c2ccc(O)cc2)coc2c([C@@H]3O[C@H](CO)[C@@H](O)[C@H](O)[C@H]3O)c(O)ccc12 [Puerarin]
- Time after administration over which the action on choroidal blood flow lasted [1]: > 3 h
- Choroidal Blood Flow, 30 min [1, 5]: 30.9 ± 7.7%
- Choroidal Blood Flow, 60 min ([1]; Flavonoids): 114.9 ± 21.5 %
- Choroidal Blood Flow, 120 min ([1]; Flavonoids): 160.8 ± 70.7 %
- Choroidal Blood Flow, 180 min ([1]; Flavonoids): 127.4 ± 65.5 %
- Start of action on choroidal blood flow ([1]; after administration): 1 h

SMILES: CC1(Br)CSC(=Nc2ccccc2)N(c2ccccc2)C1=O (stereo not shown) [CK-17, 5-bromo-5-methyl-3-phenyl-2-phenylimino-1,3-thiazinan-4-one]
- Skin irritation (guinea pigs): did not produce skin irritation
- Delay of trabeculectomy failure [3]: prolonged the appearance of trabeculectomy failure
- Delay of trabeculectomy failure relative to prednisolone [3]: more effective than prednisolone
- Effective dose to inhibit CNV formation ([2]; rat, in vivo, ip): 30 mg/kg
- Toxic response (mice; 20 g/kg given orally, observed at least 7 days): did not cause any toxic response
- LD50 equivalent for man (mice; orally, extrapolated to man): ≥ 1,400 g/70 kg
- Potency relative to aspirin ([4]; carrageenin induced inflammation): about 10 times
- Inhibition of carrageenin induced inflammation ([4]; ip 3 times before carrageenin): very effective in inhibiting carrageenin induced inflammation

SMILES: C[C@]12C=CC(=O)C=C1CC[C@@H]1[C@@H]2[C@@H](O)C[C@@]2(C)[C@H]1CC[C@]2(O)C(=O)CO [prednisolone]
- Blockade of IL-1 induced uveitis (IL-1 induced uveitis): blocked effectively
- Minimal dose required to produce inhibition of CNV formation ([2]; i.p.): 3 mg/kg

SMILES: NNc1nncc2ccccc12 [Hydralazine, phthalazin-1-ylhydrazine]
- Inhibition of CNV formation ([2]; 5 mg/kg i.p. once a day for 4 weeks, eight laser lesions): four out of eight
- Inhibition of CNV formation ([2]; 10 mg/kg i.p., eight laser lesions): inhibited all CNV formation effectively
- Inhibition of CNV formation ([2]; 10 mg/kg i.p., eight laser lesions, listed as hydralazine): inhibition of CNV formation
- Inhibition of CNV formation [2, 6]: potent inhibition of CNV formation

SMILES: O=C(O)c1ccn([N+](=O)[O-])n1 [DN-7, 1-nitro-1H-pyrazole-3-carboxylic acid]
- Retinal Function Recovery After Ischemic Insult, Treated (rat eyes; [7]): 71.4 ± 20.2 %
- Retinal Function Recovery, Net increase (%) (rat eyes; [8]): 117.0%
- Choroidal Blood Flow, 30 min [1, 9]: 42.0 ± 13.7%
- Choroidal Blood Flow, 60 min [1, 10]: 57.2 ± 3.7 %
- Choroidal Blood Flow, 120 min [1, 10]: 80.5 ± 23.1 %
- Choroidal Blood Flow, 180 min [1, 10]: 87.3 ± 29.6 %
